Publication PMC8286840, “Identifying SARS-CoV-2 antiviral compounds by screening for small molecule inhibitors of Nsp3 papain-like protease” (Biochemical Journal, 2021)
Where a name gives a salt, the structure may show the parent alone. Read-outs that look alike come from different tables or passages of the source.

How the values were obtained:
[1] = biological target: T1, SARS-CoV-2 PLpro (nsp3 1564–1878) (Severe acute respiratory syndrome coronavirus 2, UniProt P0DTD1); assay: biochemical; set-up: FRET-quenched peptide (Pro3) cleavage by PLpro, 10 min pre-incubation, slope over 20 min, normalised to no-compound control; conditions: read-out: % of control remaining
[2] = biological target: T1, SARS-CoV-2 PLpro (nsp3 1564–1878); assay: biochemical; set-up: FRET-quenched peptide (Pro3) cleavage by PLpro, 10 min pre-incubation, slope over 20 min, normalised to no-compound control; conditions: read-out: % of control remaining; remark: listed apart in the source

For `CC(C)CCN1c2nc(Nc3cc(F)c(O)c(F)c3)ncc2N(C)C(=O)C1C` (stereo not shown) [BI-D1870], the remaining activity at 3.75 µM ([1]; Well no.=2787, high concentration screen) was 104% and the remaining activity at 1.25 µM ([2]; Well no.=2787, low concentration screen) was 101%.
`Cc1cccn2c(=O)c(-c3nnn[nH]3)cnc12` [Pemirolast (potassium)] gave a remaining activity at 3.75 µM ([1]; Well no.=7611, high concentration screen) of 96.7% and a remaining activity at 1.25 µM ([2]; Well no.=7611, low concentration screen) of 98.6%.
Molecule `CC(=O)N[C@@H](CS)C(=O)O` [Acetylcysteine] has a remaining activity at 3.75 µM ([1]; Well no.=6161, high concentration screen) of 103%, a remaining activity at 3.75 µM ([1]; Well no.=8266, high concentration screen) of 101% and a remaining activity at 1.25 µM ([2]; Well no.=6161, low concentration screen) of 102%. The remaining activity at 1.25 µM ([2]; Well no.=8266, low concentration screen) was 99.9%.
Molecule `COc1cccc(-c2cn(-c3ccc(CCN4CCC(O)CC4)cc3)c3ncnc(N)c23)c1` [CGP77675] has a remaining activity at 3.75 µM ([1]; Well no.=5466, high concentration screen) of 99.9% and a remaining activity at 1.25 µM ([2]; Well no.=5466, low concentration screen) of 93.4%.
`O=C(O)c1cccnc1Nc1cccc(C(F)(F)F)c1` [Niflumic acid] gave a remaining activity at 3.75 µM ([1]; Well no.=995, high concentration screen) of 103%, a remaining activity at 3.75 µM ([1]; Well no.=2011, high concentration screen) of 106% and a remaining activity at 1.25 µM ([2]; Well no.=995, low concentration screen) of 99.1%. For the same molecule, the remaining activity at 1.25 µM ([2]; Well no.=2011, low concentration screen) was 102%.
Molecule `O=C(c1ccc(/C=C/c2n[nH]c3ccccc23)cc1)N1CCNCC1` [KW 2449] has a remaining activity at 3.75 µM ([1]; Well no.=5108, high concentration screen) of 107% and a remaining activity at 1.25 µM ([2]; Well no.=5108, low concentration screen) of 102%.
Molecule `CC(=O)N[C@H]1[C@H]([C@H](O)[C@H](O)CO)OC(C(=O)O)=C[C@@H]1NC(=N)N` [Zanamivir] has a remaining activity at 3.75 µM ([1]; Well no.=5883, high concentration screen) of 104% and a remaining activity at 1.25 µM ([2]; Well no.=5883, low concentration screen) of 103%.
`Nc1nc(Cl)nc2c1ncn2[C@@H]1O[C@H](CO)[C@@H](O)[C@H]1O` [2-Chloroadenosine] showed a remaining activity at 3.75 µM ([1]; Well no.=274, high concentration screen) of 101% and a remaining activity at 1.25 µM ([2]; Well no.=274, low concentration screen) of 99.4%.
`CN1C(=O)[C@]23CC4=CC=C[C@H](O)[C@H]4N2C(=O)[C@@]1(CO)SS3` [Gliotoxin] gave a remaining activity at 3.75 µM ([1]; Well no.=3323, high concentration screen) of 95.5% and a remaining activity at 1.25 µM ([2]; Well no.=3323, low concentration screen) of 94.1%.
With `FC(F)(F)c1cccc(C2=CCN(CCc3ccc4ccccc4c3)CC2)c1` [Xaliproden hydrochloride] the remaining activity at 3.75 µM ([1]; Well no.=5767, high concentration screen) was 105% and the remaining activity at 1.25 µM ([2]; Well no.=5767, low concentration screen) was 106%.
Work on `COC(=O)CCc1ccc(OCC(O)CNC(C)C)cc1` (stereo not shown) [Esmolol] yielded a remaining activity at 3.75 µM ([1]; Well no.=2286, high concentration screen) of 96.8% and a remaining activity at 1.25 µM ([2]; Well no.=2286, low concentration screen) of 96.3%.
With `NN=C(N)N` [Aminoguanidine hemisulfate] the remaining activity at 3.75 µM ([1]; Well no.=213, high concentration screen) was 96.8% and the remaining activity at 1.25 µM ([2]; Well no.=213, low concentration screen) was 95.8%.
`C=CCN1CC[C@]23CCCC[C@H]2[C@H]1Cc1ccc(O)cc13` [Levallorphan] showed a remaining activity at 3.75 µM ([1]; Well no.=1702, high concentration screen) of 103% and a remaining activity at 1.25 µM ([2]; Well no.=1702, low concentration screen) of 106%.
In the case of `CN(C)CCOC(=O)COc1ccc(Cl)cc1` [Centrophenoxine hydrochloride], the remaining activity at 3.75 µM ([1]; Well no.=46, high concentration screen) is reported as 107% and the remaining activity at 1.25 µM ([2]; Well no.=46, low concentration screen) is reported as 103%.
With `CCCn1c(C)c(C(=O)c2cccc3ccccc23)c2ccccc21` [JWH-015] the remaining activity at 3.75 µM [1] was 93.1% and the remaining activity at 1.25 µM [2] was 92.6%.
`N[C@@H](CCC(=O)N[C@@H](CSN=O)C(=O)NCC(=O)O)C(=O)O` [S-Nitrosoglutathione] showed a remaining activity at 3.75 µM ([1]; Well no.=855, high concentration screen) of 104% and a remaining activity at 1.25 µM ([2]; Well no.=855, low concentration screen) of 103%.
With `CC(=O)OCC(=O)[C@@]12OC(C)(C)O[C@@H]1C[C@H]1[C@@H]3C[C@H](F)C4=CC(=O)C=C[C@]4(C)[C@@]3(F)[C@@H](O)C[C@@]12C` [Fluocinonide] the remaining activity at 3.75 µM ([1]; Well no.=6805, high concentration screen) was 99.9% and the remaining activity at 1.25 µM ([2]; Well no.=6805, low concentration screen) was 98.5%.
With `O=C1NCC2(CCN(CCc3ccccc3)CC2)O1` [Fenspiride (Hydrochloride)] the remaining activity at 3.75 µM ([1]; Well no.=6705, high concentration screen) was 100% and the remaining activity at 1.25 µM ([2]; Well no.=6705, low concentration screen) was 104%.
`CCN1CCN(C(=O)Cc2ccc(Nc3ncc(F)c(Nc4ccc(C(=O)Nc5ccccc5Cl)cc4)n3)cc2)CC1` [Aurora A Inhibitor I] was tested, and the remaining activity at 3.75 µM ([1]; Well no.=5241, high concentration screen) was 102% and the remaining activity at 1.25 µM ([2]; Well no.=5241, low concentration screen) was 95.1%.
Molecule `CCCCCCCCCCCCCCCCCCOP(=O)([O-])OC1CC[N+](C)(C)CC1` [1,1-dimethylpiperidinium-4-yl octadecyl phosphate] has a remaining activity at 3.75 µM ([1]; Well no.=5460, high concentration screen) of 107% and a remaining activity at 1.25 µM ([2]; Well no.=5460, low concentration screen) of 102%.
In the case of `COc1ccccc1CNCCCCCCNCCCCCCCCNCCCCCCNCc1ccccc1OC` [Methoctramine tetrahydrochloride], the remaining activity at 3.75 µM ([1]; Well no.=1085, high concentration screen) is reported as 102% and the remaining activity at 1.25 µM ([2]; Well no.=1085, low concentration screen) is reported as 102%.
For `O=c1oc2cc(O)ccc2s1` [Tioxolone], the remaining activity at 3.75 µM ([1]; Well no.=4952, high concentration screen) was 91.8% and the remaining activity at 1.25 µM ([2]; Well no.=4952, low concentration screen) was 95.3%.
`NC(=O)c1ccc(N(C(N)=O)c2c(F)cccc2F)nc1-c1ccc(F)cc1F` [VX702] gave a remaining activity at 3.75 µM ([1]; Well no.=2943, high concentration screen) of 105% and a remaining activity at 1.25 µM ([2]; Well no.=2943, low concentration screen) of 104%.
In the case of `OCCOCCN1CCN(C(c2ccccc2)c2ccc(Cl)cc2)CC1` (stereo not shown) [Hydroxyzine (dihydrochloride)], the remaining activity at 3.75 µM ([1]; Well no.=6901, high concentration screen) is reported as 98% and the remaining activity at 1.25 µM ([2]; Well no.=6901, low concentration screen) is reported as 100%.
Molecule `Cc1c(-c2ccccc2)oc2c(C(=O)OCCN3CCCCC3)cccc2c1=O` [Flavoxate HCl] has a remaining activity at 3.75 µM ([1]; Well no.=5084, high concentration screen) of 102% and a remaining activity at 1.25 µM ([2]; Well no.=5084, low concentration screen) of 99%.
Work on `N=C(N)SCCc1c[nH]cn1` [Imetit dihydrobromide] yielded a remaining activity at 3.75 µM ([1]; Well no.=779, high concentration screen) of 94.6% and a remaining activity at 1.25 µM ([2]; Well no.=779, low concentration screen) of 94.3%.
In the case of `CC(C)NCC(O)COc1ccc(CCOCC2CC2)cc1` (stereo not shown) [Betaxolol], the remaining activity at 3.75 µM ([1]; Well no.=6177, high concentration screen) is reported as 97.1% and the remaining activity at 1.25 µM ([2]; Well no.=6177, low concentration screen) is reported as 104%.
Work on `COc1cc2c(cc1OC)CC(=O)N(CCCN(C)C[C@H]1Cc3cc(OC)c(OC)cc31)CC2` [Ivabradine (hydrochloride)] yielded a remaining activity at 3.75 µM ([1]; Well no.=7625, high concentration screen) of 94.7% and a remaining activity at 1.25 µM ([2]; Well no.=7625, low concentration screen) of 99.3%.
`CCCNCC(O)COc1ccccc1C(=O)CCc1ccccc1` (stereo not shown) [Propafenone hydrochloride] was tested, and the remaining activity at 3.75 µM ([1]; Well no.=956, high concentration screen) was 101% and the remaining activity at 1.25 µM ([2]; Well no.=956, low concentration screen) was 101%.
With `Nc1ncnc2c1ncn2[C@@H]1O[C@H](COP(=O)(O)O)[C@@H](O)[C@H]1O` [Adenosine monophosphate] the remaining activity at 3.75 µM ([1]; Well no.=7109, high concentration screen) was 102%, the remaining activity at 3.75 µM ([1]; Well no.=7816, high concentration screen) was 104% and the remaining activity at 1.25 µM ([2]; Well no.=7109, low concentration screen) was 103%. The remaining activity at 1.25 µM ([2]; Well no.=7816, low concentration screen) was 107%.
For `S=C(S)N1CCCC1` [Ammonium pyrrolidinedithiocarbamate], the remaining activity at 3.75 µM ([1]; Well no.=1495, high concentration screen) was 97.9% and the remaining activity at 1.25 µM ([2]; Well no.=1495, low concentration screen) was 102%.
With `CN1CCc2cc(Cl)c(O)cc2[C@@H](c2ccccc2)C1` [R(+)-SCH-23390 hydrochloride] the remaining activity at 3.75 µM ([1]; Well no.=638, high concentration screen) was 98% and the remaining activity at 1.25 µM ([2]; Well no.=638, low concentration screen) was 96.8%.
`C[C@H](CCC(=O)O)[C@H]1CC[C@H]2[C@@H]3C[C@H](O)[C@@H]4C[C@H](O)CC[C@]4(C)[C@H]3CC[C@]12C` [Hyodeoxycholic acid] gave a remaining activity at 3.75 µM ([1]; Well no.=5868, high concentration screen) of 101% and a remaining activity at 1.25 µM ([2]; Well no.=5868, low concentration screen) of 103%.
In the case of `COc1ccccc1N1CCN(CC(O)COc2cccc3ccccc23)CC1` (stereo not shown) [Naftopidil], the remaining activity at 3.75 µM ([1]; Well no.=7523, high concentration screen) is reported as 97.2% and the remaining activity at 1.25 µM ([2]; Well no.=7523, low concentration screen) is reported as 101%.
With `CC(/C=C1\SC(=S)N(CC(=O)O)C1=O)=C\c1ccccc1` [Epalrestat] the remaining activity at 3.75 µM ([1]; Well no.=5046, high concentration screen) was 104% and the remaining activity at 1.25 µM ([2]; Well no.=5046, low concentration screen) was 100%.
